Columns and labels:
[1] = ABTS radical cation decolorization assay; settings: 0.1 mM
Protocol: (§1) In this work, the carboxamides 3a–3u, the quinolinone–cinnamic or benzoic acid hybrids 11a–11g and the reverse amides 16a–16c were tested for their antioxidant activity via five in vitro techniques; (i) the interaction with the stable free radical 2,2-diphenyl-1-picrylhydrazyl (DPPH); (ii) the inhibition of lipid peroxidation; (iii) the hydroxyl radical scavenging ability; (iv) the 2,2-azino-bis(3-ethylbenzothiazoline-6-sulfonic acid (ABTS) radical cation (ABTS·^+) reduction; and (v) the superoxide anion radical scavenging ability.
The experimental technique used in this section was performed according to the methods of Pontiki et al.. The results were compared to the appropriate standard inhibitor Trolox.

[2] = Interaction with the stable free radical DPPH (reducing activity); settings: for Interaction with the Free Radical DPPH (%): 100 μM; for DPPH radical scavenging activity, time not specified: reaction time not given
Protocol: as §1

[3] = molecular target: T1, soybean lipoxygenase (Glycine max, UniProt P08170); experiment: Soybean LOX inhibition in vitro (UV absorbance-based assay); type: biochemical
T1 construct: purchased Sigma Chemical, Co. (St. Louis, MO, USA)
T1 sequence (P08170 1-839): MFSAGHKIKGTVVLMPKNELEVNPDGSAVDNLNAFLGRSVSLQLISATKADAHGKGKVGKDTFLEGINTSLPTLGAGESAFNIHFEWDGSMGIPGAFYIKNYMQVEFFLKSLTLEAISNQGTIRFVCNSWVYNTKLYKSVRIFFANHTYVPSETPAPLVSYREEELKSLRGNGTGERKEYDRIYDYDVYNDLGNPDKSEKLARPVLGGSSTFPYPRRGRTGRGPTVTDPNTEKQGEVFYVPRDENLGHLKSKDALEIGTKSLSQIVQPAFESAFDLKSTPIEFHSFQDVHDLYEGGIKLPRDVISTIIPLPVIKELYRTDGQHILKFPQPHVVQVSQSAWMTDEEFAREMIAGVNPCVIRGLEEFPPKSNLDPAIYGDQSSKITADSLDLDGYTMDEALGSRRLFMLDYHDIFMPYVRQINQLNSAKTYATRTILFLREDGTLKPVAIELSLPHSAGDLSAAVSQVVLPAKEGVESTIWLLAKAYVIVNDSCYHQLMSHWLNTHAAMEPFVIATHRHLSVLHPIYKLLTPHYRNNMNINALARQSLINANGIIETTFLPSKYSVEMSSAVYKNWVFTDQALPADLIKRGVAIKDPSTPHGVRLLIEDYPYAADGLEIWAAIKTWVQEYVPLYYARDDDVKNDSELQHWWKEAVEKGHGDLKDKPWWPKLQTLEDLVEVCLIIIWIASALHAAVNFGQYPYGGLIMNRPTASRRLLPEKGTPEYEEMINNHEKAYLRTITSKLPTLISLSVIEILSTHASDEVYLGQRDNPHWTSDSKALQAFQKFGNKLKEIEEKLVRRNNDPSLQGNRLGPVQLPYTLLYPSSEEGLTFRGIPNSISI
Protocol: For this study, the UV absorbance-based soybean LOX assay was used.
The assay for the determination of the inhibition of soybean LOX was performed according to the methods of Hadjipavlou-Litina et al., which we have also used in our previous works.

[4] = Competition with DMSO for hydroxyl radicals; settings: 0.1 mM
Protocol: as §1
The assay was performed according to the methods of Pontiki et al. Trolox was used as a reference compound [78].

[5] = Inhibition of lipid peroxidation of linoleic acid induced by AAPH radical; settings: 100 μM
Protocol: as §1
The assay for the determination of the inhibition of linoleic acid peroxidation induced by the free radical initiator […](2-amidinopropane) dihydrochloride (AAPH) was performed according to the methods of Hadjipavlou-Litina et al., which we have also used in our previous works.

[6] = Non-enzymatic superoxide anion radical scavenging assay (PMS); settings: 0.1 mM
Protocol: as §1
The experimental technique used for this assay was performed according to our previous works. Caffeic acid was used as an appropriate standard.

Inhibition of Soybean Lipoxygenase % at 0.1 mM ([3]; 0.1 mM)	IC50 [3]	inhibition at 100 µM ([3]; 0.1 mM)	Structure (SMILES)	ABTS% (ABTS radical cation decolorization) [1]	Interaction with the Free Radical DPPH (%) ([2]; 20 min)	Interaction with the Free Radical DPPH (%) ([2]; 60 min)	OH% (hydroxyl radical scavenging) [4]	Inhibition of Lipid Peroxidation of Linoleic Acid Induced by AAPH Radical (%) [5]	PMS% (superoxide anion radical scavenging) [6]	DPPH radical scavenging activity, time not specified [2]
	45 µM		Cc1ccc(NC(=O)c2c(O)c3ccccc3n(C)c2=O)cc1 [Compound 3l, 4-hydroxy-1-methyl-2-oxo-N-(p-tolyl)-1,2-dihydroquinoline-3-carboxamide]	no	2.6%	2.6%	53.7%	no	no	inactive
37.4%		37.5%	Cc1ccc(NC(=O)c2c(O)c3ccccc3n(-c3ccccc3)c2=O)cc1 [Compound 3r, 4-hydroxy-2-oxo-1-phenyl-N-(p-tolyl)-1,2-dihydroquinoline-3-carboxamide]	no	12.1%	1.2%	50.7%	17.1%	no	inactive
	100 µM		Cn1c(=O)c(C(=O)Nc2ccccc2O)c(O)c2ccccc21 [Compound 3j, 4-hydroxy-N-(2-hydroxyphenyl)-1-methyl-2-oxo-1,2-dihydroquinoline-3-carboxamide]	49.7%	32.5%	46.5%	100%	32.8%	no	
	52 µM		Cn1c(=O)c(C(=O)NCCO)c(O)c2ccccc21 [Compound 3c, 4-hydroxy-N-(2-hydroxyethyl)-1-methyl-2-oxo-1,2-dihydroquinoline-3-carboxamide]	25.6%	3.3%	10.7%	39.8%	100%	76.9%	
inactive and no			Cn1c(=O)c(C(=O)Nc2ccncc2)c(O)c2ccccc21 [Compound 3t, 4-hydroxy-1-methyl-2-oxo-N-(pyridin-4-yl)-1,2-dihydroquinoline-3-carboxamide]	no	19.7%	9.5%	inactive and no	100%	no	

Further lines, the compound ahead of its results:

Structure (SMILES)	Inhibition of Soybean Lipoxygenase % at 0.1 mM ([3]; 0.1 mM)	IC50 [3]	inhibition at 100 µM ([3]; 0.1 mM)	ABTS% (ABTS radical cation decolorization) [1]	Interaction with the Free Radical DPPH (%) ([2]; 20 min)	Interaction with the Free Radical DPPH (%) ([2]; 60 min)	OH% (hydroxyl radical scavenging) [4]	Inhibition of Lipid Peroxidation of Linoleic Acid Induced by AAPH Radical (%) [5]	PMS% (superoxide anion radical scavenging) [6]	DPPH radical scavenging activity, time not specified [2]
O=C(NCCO)c1c(O)c2ccccc2n(-c2ccccc2)c1=O [Compound 3d, 4-hydroxy-N-(2-hydroxyethyl)-2-oxo-1-phenyl-1,2-dihydroquinoline-3-carboxamide]	inactive and no			no activity and no	15.9%	20.8%	no	32.8%	66.6%	
O=C(Nc1ccc(F)cc1)c1c(O)c2ccccc2n(-c2ccccc2)c1=O [Compound 3s, N-(4-fluorophenyl)-4-hydroxy-2-oxo-1-phenyl-1,2-dihydroquinoline-3-carboxamide]		10 µM		no	21.2%	8.1%	100%	28.9%	no	inactive
O=C(Nc1ccc(O)cc1)c1c(O)c2ccccc2n(-c2ccccc2)c1=O [Compound 3g, 4-hydroxy-N-(4-hydroxyphenyl)-2-oxo-1-phenyl-1,2-dihydroquinoline-3-carboxamide]		27.5 µM		72.4%	40.7%	51.7%	67.7%	100%	no	
CC1CCCCC1NC(=O)c1c(O)c2ccccc2n(C)c1=O (stereo not shown) [Compound 3h, 4-hydroxy-1-methyl-N-(2-methylcyclohexyl)-2-oxo-1,2-dihydroquinoline-3-carboxamide]		10 µM		no	6.0%	8.1%	78.6%	31%	no	
CCCCCCCNC(=O)c1c(O)c2ccccc2n(C)c1=O [Compound 3e, N-heptyl-4-hydroxy-1-methyl-2-oxo-1,2-dihydroquinoline-3-carboxamide]	no activity and no			2.6%	6.6%	12.2%	86.1%	inactive and no	66.6%	
Cc1ccccc1NC(=O)c1c(O)c2ccccc2n(C)c1=O [Compound 3k, 4-hydroxy-1-methyl-2-oxo-N-(o-tolyl)-1,2,dihydroquinoline-3carboxamide]		315 µM		54.5%	1.4%	11.8%	totally inactive and no	41.4%	61.5%	inactive
CC1CCCCC1NC(=O)c1c(O)c2ccccc2n(-c2ccccc2)c1=O (stereo not shown) [Compound 3i, 4-hydroxy-N-(2-methylcyclohexyl)-2-oxo-1-phenyl-1,2-dihydroquinoline-3-carboxamide]	inactive and no			no	5.2%	3.7%	78.1%	36%	no	
Cn1c(=O)c(C(=O)NCCc2ccc(O)cc2)c(O)c2ccccc21 [Compound 3o, 4-hydroxy-N-(4-hydroxyphenethyl)-1-methyl-2-oxo-1,2-dihydroquinoline-3-carboxamide]	no			20.6%	20.8%	8.0%	44.3%	100%	no	
O=C(NCCc1ccc(O)cc1)c1c(O)c2ccccc2n(-c2ccccc2)c1=O [Compound 3n, 4-hydroxy-N-(4-hydroxyphenethyl)-2-oxo-1-phenyl-1,2-dihydroquinoline-3-carboxamide]		85 µM		no	13.9%	19.2%	14.9%	100%	no	

Source: paper PMC10780633, “Novel Multi-Target Agents Based on the Privileged Structure of 4-Hydroxy-2-quinolinone” (Molecules, 2023)
